# Measured values reported in PubChem BioAssay (NCI).
# Values joined by “and” are separate entries in the source; they are usually repeats but may differ in a detail not shown here. Equal values may be shown once.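 Where inhibition never reached the appropriate level, the endpoint shown equals the highest concentration tested. Otherwise, values were interpolated linearly from a five-concentration, 48-hour dose response in 96-well plates. The concentration for 50% growth inhibition is given as GI50. TGI is the concentration that stops growth completely.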 Active and inactive are the calls of the source. Rule as the data show it: active = GI50 below about 0.43 µM; inactive = the rest.
# Assays:
# Assay in all cases: NCI tumour cell line growth inhibition, 48 h
# [1] = test system: MDA-N
# [2] = test system: DLD-1 colon
# [3] = test system: DMS 273 small cell lung
# [4] = test system: LXFL 529 NSCLC
# [5] = test system: M19-MEL melanoma
# [6] = test system: HOP-18 NSCLC
# [7] = test system: SNB-78 CNS
# [8] = test system: DMS 114 small cell lung
# [9] = test system: XF 498 CNS
SMILES,TGI [1],TGI [2],TGI [3],TGI [4],TGI [5],TGI [6],TGI [7],TGI [8],TGI [9],other results
O=S1(=O)NC2CCC3NS(=O)(=O)NC4CCC(N1)N4S(=O)(=O)N23 (stereo not given),> 100 µM,–,–,–,–,–,–,–,–,–
CC(=O)[CH-]C(=O)c1ccccc1.CC(=O)[CH-]C(=O)c1ccccc1.CC[C@H](/C=C/C(C)[C@H]1CCC2[C@@H]3CC=C4C[C@@H]([O-])CC[C@]4(C)C3CC[C@@]21C)C(C)C.CC[O-].[Ti+4] (stereo not given in full),–,> 100 µM,> 100 µM,> 100 µM,> 100 µM,–,–,–,–,GI50 [2]: > 100 µM; GI50 [3]: > 100 µM; GI50 [4]: > 100 µM; GI50 [5]: > 100 µM
CC1(C)CCCC(C)(C2CCC3(C)C2C(O)CC2C4(C)CCC(O)C(C)(C)C4C(O)CC23C)O1 (stereo not given),30.8 µM,–,–,–,–,–,–,–,–,–
COC(=O)C[CH2][Ge]([CH3])([CH3])[S]c1ccccc1,–,42.9 µM,> 100 µM,81.1 µM,> 100 µM,> 100 µM,> 100 µM,–,–,GI50 [2]: 20.3 µM; GI50 [3]: 42.6 µM; GI50 [6]: > 100 µM; GI50 [4]: 24 µM; GI50 [5]: 36.8 µM; GI50 [7]: 59.5 µM
O=C(N/C(=C\c1ccc(/C=C(\NC(=O)c2ccccc2)c2nc3cc(Cl)ccc3[nH]2)cc1)c1nc2cc(Cl)ccc2[nH]1)c1ccccc1,–,> 100 µM,50.4 µM,> 100 µM,> 100 µM,> 100 µM,> 100 µM,> 100 µM,> 100 µM,–
COc1ccc(CNC(C)C(=O)O)cc1 (stereo not given),> 100 µM,–,–,–,–,–,–,–,–,–
CSc1nc2c(nc(N)n2C2OC(COC(C)=O)C(OC(C)=O)C(OC(C)=O)C2OC(C)=O)c(=O)n1C (stereo not given),–,> 100 µM,–,> 100 µM,–,> 100 µM,> 100 µM,> 100 µM,> 100 µM,–
Cc1cc2nc3ccc(=[N+](C)C)cc-3sc2cc1N,2.35 µM,23.5 µM,12.2 µM,18.1 µM,0.354 µM,36.6 µM,54.9 µM,2.79 µM,–,–
COC(C(=O)C(O)C(C)O)C1Cc2cc3cc(OC4CC(OC5CC(O)C(O)C(C)O5)C(O)C(C)O4)c(C)c(O)c3c(O)c2C(=O)C1OC1CC(OC2CC(O)C(OC3CC(C)(O)C(O)C(C)O3)C(C)O2)C(O)C(C)O1 (stereo not given),128 ng/mL and 328 ng/mL,150 ng/mL,2.4 ng/mL,–,0.31 ng/mL,–,21.4 ng/mL,0.479 ng/mL,–,GI50 [2]: 0.0828 ng/mL; GI50 [8]: 0.0556 ng/mL; GI50 [3]: 0.0407 ng/mL; outcome [6]: inactive; GI50 [5]: 0.0253 ng/mL; GI50 [1]: 13.9 ng/mL and 25.8 ng/mL; GI50 [7]: 0.0424 ng/mL; outcome [9]: inactive
Cn1c(=O)c2ccc(-c3ccc(Br)cc3)nc2n(C)c1=O,–,> 100 µM,> 100 µM,> 100 µM,> 100 µM,> 100 µM,> 100 µM,> 100 µM,> 100 µM,–
Cn1c2ccccc2c(=O)c2c(O)cc3c(c21)CC(C1(C)CO1)O3 (stereo not given),2.73 µM,26.1 µM,49.2 µM,1.5 µM,–,> 93.2 µM,–,5.11 µM,4.73 µM,–
CC(C)=CCC1=C(OCC(=O)O)C(=O)c2ccccc2C1=O,34.8 µM,–,–,–,–,–,–,–,–,–
C=C(C)C1CC=C(C)CC1 (stereo not given),–,> 100 µM and 1610 µM,> 100 µM and 1720 µM,> 100 µM and 1550 µM,> 100 µM and 1580 µM,> 100 µM,> 100 µM and 1960 µM,> 100 µM and 1650 µM,> 100 µM and 1720 µM,GI50 [2]: > 100 µM; GI50 [8]: > 100 µM; GI50 [3]: > 100 µM; GI50 [4]: > 100 µM; GI50 [5]: > 100 µM; GI50 [7]: > 100 µM; GI50 [9]: > 100 µM
NC1=NN(c2ccccc2)C(=O)C1/C(=N\NC(=O)c1cc2ccccc2cc1O)C(=O)Nc1cccc(C(F)(F)F)c1 (stereo not given),–,> 100 µM,–,> 100 µM,> 100 µM,> 100 µM,> 100 µM,83 µM,> 100 µM,–
Cc1ccc(NC(=O)CC/C(CC(=O)C(C)(C)C)=N/NC(=O)C[N+](C)(C)C)cc1C,–,> 100 µM,–,> 100 µM,> 100 µM,> 100 µM,> 100 µM,> 100 µM,–,–
CCOc1ccc2c(C)cc(=O)oc2c1,> 100 µM,–,–,–,–,–,–,–,–,–
CSCC[C@H](NC(=O)[C@H](CC(C)C)NC(=O)[C@@H](Cc1ccccc1)NC(=O)CNC(=O)[C@@H](NC(=O)[C@H](C)NC(=O)[C@H](Cc1c[nH]c2ccccc12)NC(=O)[C@H](CCC(N)=O)NC(=O)[C@H](N)CC(N)=O)C(C)C)C(N)=O,> 12.5 µM,–,–,–,–,–,–,–,–,–
COc1cccc(NC(=O)C(C)(C)C)c1SSc1c(NC(=O)C(C)(C)C)cccc1OC,–,> 61.8 µM,> 100 µM,29.9 µM,> 100 µM,> 100 µM,51.2 µM,–,35.7 µM,–
C/C=C(/CCC1NCCC2c3ccccc3NC12)[Si](C)(C)C (stereo not given),–,17.1 µM,21.7 µM,13 µM,24.8 µM,26.7 µM,26.2 µM,14.3 µM,12.1 µM,–

SMILES,TGI [1],TGI [2],TGI [3],TGI [4],TGI [5],TGI [6],TGI [7],TGI [8],TGI [9],other results
O=S(=O)(c1ccc(Br)cc1)N1CCN(S(=O)(=O)c2ccc(Br)cc2)CC1,> 100 µM,–,–,–,–,–,–,–,–,–
C[C@]12CCC[C@H](O)[C@H]1C[C@H](CO)CC2,–,> 100 µM,> 100 µM,> 100 µM,> 100 µM,> 100 µM,–,–,> 100 µM,–
CCC(CCC(C)C1CCC2C3CC=C4CC(OC5OC(CO)C(O)C(O)C5O)CCC4(C)C3CCC12C)C(C)C (stereo not given),> 100 µM,–,–,–,–,–,–,–,–,–
Cc1cc(=O)n2c3c(c4c(cc13)c(CO)cc(=O)n4C)OC2,–,> 100 µM,> 100 µM,34 µM,46.4 µM,62.6 µM,> 100 µM,47.5 µM,32.4 µM,–
CC(=O)[CH-]C(=O)c1ccccc1.CC(=O)[CH-]C(=O)c1ccccc1.CC1(C)OCC(C2OC3OC(C)(C)OC3C2[O-])O1.CC1(C)OCC(C2OC3OC(C)(C)OC3C2[O-])O1.[Ti+4] (stereo not given),–,52.5 µM,–,24 µM,> 100 µM,–,–,–,–,GI50 [2]: 18.5 µM; GI50 [4]: 11.5 µM; GI50 [5]: 4.91 µM
CCOC(=O)C1=C(C)N(Cc2ccccc2)C(=O)C1CC#N (stereo not given),–,> 100 µM,> 100 µM,> 100 µM,> 100 µM,> 100 µM,> 100 µM,> 100 µM,–,–
COc1ccc2c(c1)C1OCCNC1CC2 (stereo not given),> 100 µM,–,–,–,–,–,–,–,–,–
NS(=O)(=O)c1ccc(NCc2cnc3ccccc3n2)cc1,> 100 µM,–,–,–,–,–,–,–,–,–
COc1ccc2c(c1)[n+]([O-])c(-c1ccc(Br)cc1)c(N)[n+]2[O-],–,> 100 µM,68.9 µM,–,> 100 µM,> 100 µM,> 100 µM,57.9 µM,> 100 µM,–
C[C@]12CC[C@H]3[C@@H](CCC4=CC(=O)CC[C@@]43C)[C@@H]1CC[C@@H]2C(=O)COS(=O)(=O)c1ccc(Br)cc1,33.8 µM,–,–,–,–,–,–,–,–,–
NC(=S)N/N=C/c1ccc(N)cn1,> 10 µM,–,–,–,–,–,–,–,–,–
COc1cc2oc(-c3ccc(O)cc3O)c(CC=C(C)C)c(=O)c2c(O)c1/C=C/C(C)C,8.34 µM,–,–,–,–,–,–,–,–,–
C/C(=N\NC(=S)N1CCN(C2CCCCCC2)CC1)c1ccccn1,–,1.96 µM,8.26 µM and 2.19 µM,2.67 µM,3.37 µM,7.89 µM,19 µM,0.0461 µM and < 0.0408 µM,–,GI50 [2]: < 0.001 µM; GI50 [8]: < 0.001 µM; GI50 [3]: < 0.001 µM; GI50 [6]: 0.422 µM; GI50 [5]: 0.928 µM; GI50 [7]: 4.58 µM
C=C1COC(O)(C2OCOC(C3CC(=O)NC(=O)C3)C2O)C1C (stereo not given),0.0289 µM,0.0556 µM and 0.0675 µM,0.0283 µM and 0.0417 µM,0.0897 µM and 0.101 µM,0.00849 µM and 0.0215 µM,0.035 µM and 0.0686 µM,0.0971 µM and 0.0358 µM,0.0271 µM and 0.0437 µM,–,GI50 [2]: 0.0109 µM; GI50 [6]: 0.0112 µM
COC(=O)NC(=Nc1ccc(Oc2ccccc2)cc1NC=O)NC(=O)OC,–,> 100 µM,–,> 100 µM,> 100 µM,> 100 µM,–,0.864 µM,6.75 µM,–
c1ccc(CN2CCC3(CC2)SSC2(CCN(Cc4ccccc4)CC2)SS3)cc1,> 100 µM,–,–,–,–,–,–,–,–,–
COC(=O)C1=Cc2cc(OC)c(OC)cc2[C@H](c2ccc(OC)c(OC)c2)C1C(=O)OC (stereo not given in full),–,–,> 100 µM,> 100 µM,> 100 µM,–,> 100 µM,> 100 µM,> 100 µM,–
Cc1cc(Cl)ccc1NC(=O)CCCC(=O)C1CCC/C1=N\NC(=O)CC#N (stereo not given),–,> 100 µM,> 100 µM,> 100 µM,> 100 µM,97.9 µM,> 100 µM,> 100 µM,> 100 µM,–
